The target of the test is T1, hCCR2b (Homo sapiens, UniProt P41597).
T1 sequence (P41597 1-360 isoform P41597-2): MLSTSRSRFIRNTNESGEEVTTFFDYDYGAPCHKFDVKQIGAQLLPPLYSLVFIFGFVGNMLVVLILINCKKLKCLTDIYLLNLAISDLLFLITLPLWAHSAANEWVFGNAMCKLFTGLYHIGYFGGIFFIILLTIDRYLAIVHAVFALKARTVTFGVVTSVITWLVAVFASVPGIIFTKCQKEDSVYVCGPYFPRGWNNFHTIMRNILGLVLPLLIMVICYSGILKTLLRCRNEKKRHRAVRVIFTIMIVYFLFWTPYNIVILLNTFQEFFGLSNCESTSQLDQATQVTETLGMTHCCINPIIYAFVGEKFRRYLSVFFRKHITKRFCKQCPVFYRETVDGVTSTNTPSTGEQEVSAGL
In words: CCR2 binding assay ([125I]MCP-1, SPA, CHO cell membranes). As to conditions: membranes from CHO cells expressing hCCR2b, 50 pM [125I]MCP-1; read-out: Binding hCCR2 (Ki). On the set-up: expressed in transfected cells; host or cells: CHO cells (membrane preparation). Here is the method:
Membranes were prepared from CHO cells expressing mCCR2b or hCCR2b for use in ligand binding studies. Cells were suspended in 50mM Tris-HCL, pH 7.4, 2 mM EDTA, 250 mM Sucrose and 1x Complete EDTA-free protease inhibitor cocktail (Roche) (Buffer A), and disrupted at 4°C by N2 decompression using a cell disruption bomb (Parr Instrument). Following centrifugation at 200 RCF for 10 min at 4°C, the supernatant was suspended in buffer A and centrifuged again at 19000 RPM (RCSC rotor SS34 code 05 Sorvall Instruments DUPONT) for 90 min at 4°C. The pellet was then suspended in 10 mM HEPES, pH 7.4, 1 mM EDTA, 250 mM Sucrose, and 1x Complete EDTA-free protease inhibitor cocktail (Buffer B) and homogenized using a potter. Membranes were flash frozen in liquid N2 and stored at -80°C. [125I] Monocyte Chemoattractant Protein -1 (MCP-1) (25µCi; Perkin Elmer) was added to test compounds in DMSO (1% final). Membranes and WGA SPA beads (GE Healthcare) were added to give a final volume of 100 µl in 96-well plates with assay concentrations of 50 pM or 100 pM [125I]Monocyte Chemoattractant Protein -1 (respectively for hCCR2b or mCCR2b), 50 mM HEPES, pH 7.4, 5 mM MgCl2, 1 mM CaCl2, 0.1% BSA, 1-5 µg/well of membranes and 100 µg/well of WGA SPA beads. Binding was performed for 90 min at RT with strong agitation of speed 5 (Heidolph Titramax 100 SCITEC) and bound radioactivity was measured on a PerkinElmer 1450 MicroBeta counter. Specific binding was calculated by subtracting remaining radioactivity in the presence of 1000-fold excess of unlabeled compound. Binding data were analyzed using the Genedata Screener® software.

Structures are written as SMILES. Bounds are passed on as bounds.

As usually defined, the Ki is a measure of affinity in units of concentration, obtained from inhibition or displacement. Turning to `CC1=C(C(=O)N2CCc3ccc(C(F)(F)F)cc3C2)C2(CCN(C3CCN(C)CC3)CC2)OC1=O` [Compound 38, 3-methyl-8-(1-methylpiperidin-4-yl)-4-{[7-(trifluoromethyl)-3,4-dihydroisoquinolin-2(1H)-yl]carbonyl}-1-oxa-8-azaspiro[4.5]dec-3-en-2-one], the Ki was in the range of 100 to 500 nM. In the case of `CC1=C(C(=O)N2CCc3ccc(C(F)(F)F)cc3C2)C2(CCN(C3CCCS(=O)(=O)C3)CC2)OC1=O` (stereo not shown) [Compound 39, 8-(1,1-dioxidotetrahydro-2H-thiopyran-3-yl)-3-methyl-4-{[7-(trifluoromethyl)-3,4-dihydroisoquinolin-2(1H)-yl]carbonyl}-1-oxa-8-azaspiro[4.5]dec-3-en-2-one] it was 50 to 100 nM; in that of `CCN1CCC2(C1)OC(=O)C(C)=C2C(=O)N1CCc2ccc(C(F)(F)F)cc2C1` (stereo not shown) [Compound 42, 7-ethyl-3-methyl-4-{[7-(trifluoromethyl)-3,4-dihydroisoquinolin-2(1H)-yl]carbonyl}-1-oxa-7-azaspiro[4.4]non-3-en-2-one], less than 50 nM; in that of `CC1=C(C(=O)N2CCc3ncc(C(F)(F)F)cc3C2)C2(CCN(C3CCC(O)CC3)CC2)OC1=O` (stereo not shown) [Compound 45, 8-(4-hydroxycyclohexyl)-3-methyl-4-{[3-(trifluoromethyl)-7,8-dihydro-1,6-naphthyridin-6(5H)-yl]carbonyl}-1-oxa-8-azaspiro[4.5]dec-3-en-2-one], less than 50 nM. In the case of `CC1=C(C(=O)N2CCc3ncc(C(F)(F)F)cc3C2)C2(CCN(CC3CCOC3)CC2)OC1=O` (stereo not shown) [Compound 46, 3-methyl-8-(tetrahydrofuran-3-ylmethyl)-4-{[3-(trifluoromethyl)-7,8-dihydro-1,6-naphthyridin-6(5H)-yl]carbonyl}-1-oxa-8-azaspiro[4.5]dec-3-en-2-one] it was less than 50 nM; in that of `CC1=C(C(=O)N2CCc3ncc(C(F)(F)F)cc3C2)C2(CCN(C3CCOC(C)C3)CC2)OC1=O` (stereo not shown) [Compound 47, 3-methyl-8-(2-methyltetrahydro-2H-pyran-4-yl)-4-{[3-(trifluoromethyl)-7,8-dihydro-1,6-naphthyridin-6(5H)-yl]carbonyl}-1-oxa-8-azaspiro[4.5]dec-3-en-2-one], less than 50 nM. Next, `CCN1CCC2(CC1)OC(=O)C(C)=C2C(=O)N1CCc2ccc(C#N)cc2C1` [Compound 49, 2-[(8-ethyl-3-methyl-2-oxo-1-oxa-8-azaspiro[4.5]dec-3-en-4-yl)carbonyl]-1,2,3,4-tetrahydroisoquinoline-7-carbonitrile]: 100 to 500 nM; `CCN1CCC2(CC1)OC(=O)C(C)=C2C(=O)N1CCc2ccc(Cl)cc2C1` [Compound 50, 4-[(7-chloro-3,4-dihydroisoquinolin-2(1H)-yl)carbonyl]-8-ethyl-3-methyl-1-oxa-8-azaspiro[4.5]dec-3-en-2-one]: less than 50 nM; `CCN1CCC2(CC1)OC(=O)C(C)=C2C(=O)N1CCc2cccc(C(F)(F)F)c2C1` [Compound 51, 8-ethyl-3-methyl-4-{[8-(trifluoromethyl)-3,4-dihydroisoquinolin-2 (1H)-yl]carbonyl}-1-oxa-8-azaspiro[4.5]dec-3-en-2-one]: 500 to 2000 nM.

Turning to `CCN1CCC2(CC1)OC(=O)C(C)=C2C(=O)N1CCCN(c2cccc(F)c2)CC1` [Compound 52, 8-ethyl-4-{[4-(3-fluorophenyl)-1,4-diazepan-1-yl]carbonyl}-3-methyl-1-oxa-8-azaspiro[4.5]dec-3-en-2-one], the Ki lay in the range of 500 to 2000 nM.

On to `CCN1CCC2(CC1)OC(=O)C(C)=C2C(=O)N1CCc2ccc(F)cc2C1` [Compound 53, 8-ethyl-4-[(7-fluoro-3,4-dihydroisoquinolin-2(1H)-yl)carbonyl]-3-methyl-1-oxa-8-azaspiro[4.5]dec-3-en-2-one], for which the Ki was in the range of 100 to 500 nM. In the case of `CCN1CCC2(CC1)OC(=O)C(C)=C2C(=O)N1CCc2cc(C(F)(F)F)ccc2C1` [Compound 54, 8-ethyl-3-methyl-4-{[6-(trifluoromethyl)-3,4-dihydroisoquinolin-2 (1H)-yl]carbonyl}-1-oxa-8-azaspiro[4.5]dec-3-en-2-one] it was less than 50 nM; in that of `CCN1CCC2(CC1)OC(=O)C(C)=C2C(=O)N1CCC(c2cccc(C(F)(F)F)c2)C1` (stereo not shown) [Compound 55, 8-ethyl-3-methyl-4-({3-[3-(trifluoromethyl)phenyl]pyrrolidin-1-yl}carbonyl)-1-oxa-8-azaspiro[4.5]dec-3-en-2-one], 100 to 500 nM; in that of `CCN1CCC2(CC1)OC(=O)C(C)=C2C(=O)NCC(=O)Nc1cccc(C(F)(F)F)c1` [Compound 56, 8-ethyl-3-methyl-2-oxo-N-(2-oxo-2-{[3-(trifluoromethyl)phenyl]amino}ethyl)-1-oxa-8-azaspiro[4.5]dec-3-ene-4-carboxamide], less than 50 nM.

With `CCN1CCC2(CC1)OC(=O)C(C)=C2C(=O)N1CCN(CCc2ccc(F)cc2)CC1` [Compound 58, 8-ethyl-4-({4-[2-(4-fluorophenyl)ethyl]piperazin-1-yl}carbonyl)-3-methyl-1-oxa-8-azaspiro[4.5]dec-3-en-2-one], the Ki lay within 100 to 500 nM. In the case of `CCN1CCC2(CC1)OC(=O)C(C)=C2C(=O)N1CCC(Nc2cccc(C(F)(F)F)c2)CC1` [Compound 59, 8-ethyl-3-methyl-4-[(4-{[3-(trifluoromethyl)phenyl]amino}piperidin-1-yl)carbonyl]-1-oxa-8-azaspiro[4.5]dec-3-en-2-one] it was 500 to 2000 nM; in that of `CCN1CCC2(CC1)OC(=O)C(C)=C2C(=O)N1CCN(c2cncc(C(F)(F)F)c2)CC1` [Compound 60, 8-ethyl-3-methyl-4-({4-[5-(trifluoromethyl)pyridin-3-yl]piperazin-1-yl}carbonyl)-1-oxa-8-azaspiro[4.5]dec-3-en-2-one], 50 to 100 nM. Next, `COc1ccccc1CCN1CCC2(CC1)OC(=O)C(C)=C2C(=O)N1CCN(c2cccc(C(F)(F)F)c2)CC1` [Compound 63, 8-[2-(2-methoxyphenyl)ethyl]-3-methyl-4-({4-[3-(trifluoromethyl)phenyl]piperazin-1-yl}carbonyl)-1-oxa-8-azaspiro[4.5]dec-3-en-2-one]: less than 50 nM; `CC1=C(C(=O)NCc2ccc(C(F)(F)F)cc2)C2(CCN(C(C)C)CC2)OC1=O` [Compound 64, 8-isopropyl-3-methyl-2-oxo-N-[4-(trifluoromethyl)benzyl]-1-oxa-8-azaspiro[4.5]dec-3-ene-4-carboxamide]: 500 to 2000 nM. With `COc1ccccc1CCN1CCC2(CC1)OC(=O)C(C)=C2C(=O)N1CCc2ccc(C(F)(F)F)cc2C1` [Compound 65, 8-[2-(2-methoxyphenyl)ethyl]-3-methyl-4-{[7-(trifluoromethyl)-3,4-dihydroisoquinolin-2(1H)-yl]carbonyl}-1-oxa-8-azaspiro[4.5]dec-3-en-2-one], the Ki is less than 50 nM.

On to `CCN1CCC2(CC1)OC(=O)C(C)=C2C(=O)Nc1cnn(-c2ccc(C(F)(F)F)cc2)c1` [Compound 67, 8-ethyl-3-methyl-2-oxo-N-{1-[4-(trifluoromethyl)phenyl]-1H-pyrazol-4-yl}-1-oxa-8-azaspiro[4.5]dec-3-ene-4-carboxamide], for which the Ki was in the range of 500 to 2000 nM.

Turning to `CCN1CCC2(CC1)OC(=O)C(C)=C2C(=O)N1CCN(c2cccc(C)c2)CC1` [Compound 68, 8-ethyl-3-methyl-4-{[4-(3-methylphenyl)piperazin-1-yl]carbonyl}-1-oxa-8-azaspiro[4.5]dec-3-en-2-one], the inhibition constant Ki was in the range of 500 to 2000 nM.

Regarding `CC1=C(C(=O)NCC(=O)Nc2cccc(C(F)(F)F)c2)C2(CCN(C3CCOCC3)CC2)OC1=O` [Compound 69, 3-methyl-2-oxo-N-(2-oxo-2-{[3-(trifluoromethyl)phenyl]amino}ethyl)-8-(tetrahydro-2H-pyran-4-yl)-1-oxa-8-azaspiro[4.5]dec-3-ene-4-carboxamide], the Ki was less than 50 nM. For `CCN1CCC2(CC1)OC(=O)C(C)=C2C(=O)N1CCN(c2cc(C(F)(F)F)ccn2)CC1` [Compound 70, 8-ethyl-3-methyl-4-({4-[4-(trifluoromethyl)pyridin-2-yl]piperazin-1-yl}carbonyl)-1-oxa-8-azaspiro[4.5]dec-3-en-2-one], the Ki was less than 50 nM. Turning to `CCN1CCC2(CC1)OC(=O)C(C)=C2C(=O)N1C[C@@H]2C[C@H]1CN2c1cc(C(F)(F)F)ccn1` [Compound 71, 8-ethyl-3-methyl-4-({(1S,4S)-5-[4-(trifluoromethyl)pyridin-2-yl]-2,5-diazabicyclo[2.2.1]hept-2-yl}carbonyl)-1-oxa-8-azaspiro[4.5]dec-3-en-2-one], the Ki was less than 50 nM.

The values are drawn from patent publication EP2508526A1, “Spiroalkene carboxamide derivatives and their use as chemokine receptor modulators” (Ares Trading SA, priority 2011, dated 2012).
